Assay results from US12459951B2, “Compounds that interact with RAS superfamily proteins for treatment of cancers, inflammatory diseases, rasopathies, and fibrotic disease” (SHY Therapeutics, LLC, priority 2022, dated 2025).
Counter-ions that a name gives are not always drawn.

Key:
[1] = tested on: KRas wild type; experiment: Ras GTP Binding Domain Inhibition Assay (Ras Superfamily Assay); conditions: 20 μM compound; for KRas wild type + SOS: % inh.: with SOS; for KRas wild type: % inh.: without SOS
Procedure, shortened: (§1)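 His-tagged GTPases immobilised on nickel-coated plates, pre-incubated with compound (20 μM single point, or serial dilution for IC50) 3 h at room temperature, with or without 10-30 μg/mL Sos (residues 556-1049) in the final hour. Bound Cy3- or Cy5-GTP (100 nM, 45 min) measured by fluorescence after washing.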

[2] = target: T1, Rac-1 (Homo sapiens, UniProt P63000); experiment: as above; conditions: read-out: Rac-1: % inh.
T1 construct: made in house
Procedure, shortened: as §1

[3] = tested on: KRas G12D mutant; experiment: as above; conditions: 20 μM compound; for KRas G12D mutant + SOS: % inh.: with SOS; for KRas G12D mutant: % inh.: without SOS
Procedure, shortened: as §1

[4] = tested on: Akt phosphorylation; experiment: Akt Phosphorylation Assay (western blot), Panc-1; assay type: cell-based, human; conditions: at 10 μM, * = activation
Procedure, shortened: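 Phospho-Akt (Ser473) was measured by western blot in lysates of KRas G12D Panc-1 cells exposed to test compound for 6 h at 37 °C, either at 10 μM final with 0.3% DMSO or as serial dilutions for IC50. One format used overnight 0.5% FBS starvation followed by a 15 min pulse of 1.5 ng/ml EGF. The other used cells in 10% FBS with no stimulation.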

SMILES	KRas wild type + SOS: % inh. [1]	KRas wild type: % inh. [1]	inhibition at 20 µM [2]	KRas G12D mutant + SOS: % inh. [3]	KRas G12D mutant: % inh. [3]	% inh of Akt phosphorylation in Panc-1 [4]
COCCO[C@H]1C[C@H](Nc2nc(-c3nccn3C)nn3cc(-c4ccn(C)n4)c(C)c23)C1 [Compound 130, N-((1r,3r)-3-(2-Methoxyethoxy)cyclobutyl)-5-methyl-2-(1-methyl-1H-imidazol-2-yl)-6-(1-methyl-1H-pyrazol-3-yl)pyrrolo[2,1-f][1,2,4]triazin-4-amine]	0 (0 = 0% inhibition)	A (A = 1-25% inhibition)	0%	A (A = 1-25% inhibition)	B (B = 26-49% inhibition)	D* (85-100% activation)
Cc1c(-c2ccn(C(C)C)n2)cn2nc(-c3nccn3C)nc(Nc3cc(OCCO)ncn3)c12 [Compound 97, 2-((6-((6-(1-Isopropyl-1H-pyrazol-3-yl)-5-methyl-2-(1-methyl-1H-imidazol-2-yl)pyrrolo[2,1-f][1,2,4]triazin-4-yl)amino)pyrimidin-4-yl)oxy) ethan-1-ol]	D (D = 76-100% inhibition)	D (D = 76-100% inhibition)	76 to 100%	D (D = 76-100% inhibition)	D (D = 76-100% inhibition)	D* (85-100% activation)
COc1ccnc(Nc2nc(-c3nccn3C)nn3cc(-c4ccn(C)n4)c(C)c23)n1.Cl [Compound 114, N-(4-Methoxypyrimidin-2-yl)-5-methyl-2-(1-methyl-1H-imidazol-2-yl)-6-(1-methyl-1H-pyrazol-3-yl)pyrrolo[2,1-f][1,2,4]triazin-4-amine hydrochloride salt]	D (D = 76-100% inhibition)	D (D = 76-100% inhibition)	76 to 100%	D (D = 76-100% inhibition)	D (D = 76-100% inhibition)	D* (85-100% activation)
COc1cc(Nc2nc(-c3nccn3C)nn3cc(-c4ccn(C(F)F)n4)c(C)c23)ncn1 [Compound 98, 6-(1-(Difluoromethyl)-1H-pyrazol-3-yl)-N-(6-methoxypyrimidin-4-yl)-5-methyl-2-(1-methyl-1H-imidazol-2-yl)pyrrolo[2,1-f][1,2,4]triazin-4-amine]	A (A = 1-25% inhibition)	C (C = 50-75% inhibition)	50 to 75%	C (C = 50-75% inhibition)	C (C = 50-75% inhibition)	D* (85-100% activation)
COc1ccnc(Nc2nc(-c3nccn3C)nn3cc(-c4cccnc4)c(-c4cccnc4)c23)c1 [Compound 169, N-(4-methoxypyridin-2-yl)-2-(1-methyl-1H-imidazol-2-yl)-5,6-di(pyridin-3-yl)pyrrolo[2,1-f][1,2,4]triazin-4-amine]	D (D = 76-100% inhibition)	D (D = 76-100% inhibition)	76 to 100%	D (D = 76-100% inhibition)	D (D = 76-100% inhibition)	C* (46-84% activation)
COc1cc(Nc2nc(-c3nccn3C)nn3cc(-c4ccccn4)c(C)c23)ncn1 [Compound 94, N-(6-Methoxypyrimidin-4-yl)-5-methyl-2-(1-methyl-1H-imidazol-2-yl)-6-(pyridin-2-yl)pyrrolo[2,1-f][1,2,4]triazin-4-amine]	B (B = 26-49% inhibition)	C (C = 50-75% inhibition)	50 to 75%	B (B = 26-49% inhibition)	C (C = 50-75% inhibition)	D* (85-100% activation)
CO[C@H]1CC[C@@H](Nc2nc(-c3nccn3C)nn3cc(-c4ccn(C)n4)c(C)c23)C1 (racemic) [Compound 133, rac N-((1R,3S)-3-Methoxycyclopentyl)-5-methyl-2-(1-methyl-1H-imidazol-2-yl)-6-(1-methyl-1H-pyrazol-3-yl)pyrrolo[2,1-f][1,2,4]triazin-4-amine]	0 (0 = 0% inhibition)	A (A = 1-25% inhibition)	1 to 25%	0 (0 = 0% inhibition)	B (B = 26-49% inhibition)	B (26-49% inhibition)
CO[C@H]1C[C@H](Nc2nc(-c3nccn3C)nn3cc(-c4ccn(C)n4)c(C)c23)C1 [Compound 103, N-((1r,3r)-3-Methoxycyclobutyl)-5-methyl-2-(1-methyl-1H-imidazol-2-yl)-6-(1-methyl-1H-pyrazol-3-yl)pyrrolo[2,1-f][1,2,4]triazin-4-amine hydrochloride salt]	A (A = 1-25% inhibition)	B (B = 26-49% inhibition)	1 to 25%	B (B = 26-49% inhibition)	B (B = 26-49% inhibition)	C* (46-84% activation)
Cc1c(-c2ccn(C3CC3)n2)cn2nc(-c3nccn3C)nc(Nc3cc(OC(F)F)ccn3)c12 [Compound 139, 6-(1-Cyclopropyl-1H-pyrazol-3-yl)-N-(4-(difluoromethoxy)pyridin-2-yl)-5-methyl-2-(1-methyl-1H-imidazol-2-yl)pyrrolo[2,1-f][1,2,4]triazin-4-amine]	D (D = 76-100% inhibition)	D (D = 76-100% inhibition)	76 to 100%	D (D = 76-100% inhibition)	D (D = 76-100% inhibition)	D* (85-100% activation)
COc1cc(Nc2nc(-c3nccn3C)nn3cc(-c4cccnc4)c(-c4ccccn4)c23)ncn1 [Compound 167, N-(6-Methoxypyrimidin-4-yl)-2-(1-methyl-1H-imidazol-2-yl)-5-(pyridin-2-yl)-6-(pyridin-3-yl)pyrrolo[2,1-f][1,2,4]triazin-4-amine]	A (A = 1-25% inhibition)	A (A = 1-25% inhibition)	1 to 25%	A (A = 1-25% inhibition)	B (B = 26-49% inhibition)	B* (26-49% activation)
Cc1c(-c2ccn(C)n2)cn2nc(-c3nccn3C)nc(Nc3nccn3C)c12 [Compound 106, 5-Methyl-N,2-bis(1-methyl-1H-imidazol-2-yl)-6-(1-methyl-1H-pyrazol-3-yl)pyrrolo[2,1-f][1,2,4]triazin-4-amine]	0 (0 = 0% inhibition)	A (A = 1-25% inhibition)	26 to 49%	A (A = 1-25% inhibition)	B (B = 26-49% inhibition)	D* (85-100% activation)
Cc1c(-c2ccn(C3CC3)n2)cn2nc(-c3nccn3C)nc(Nc3cc(N(C)C)ccn3)c12 [Compound 145, N^2-(6-(1-Cyclopropyl-1H-pyrazol-3-yl)-5-methyl-2-(1-methyl-1H-imidazol-2-yl)pyrrolo[2,1-f][1,2,4]triazin-4-yl)-N^4,N^4-dimethylpyridine-2,4-diamine]	D (D = 76-100% inhibition)	D (D = 76-100% inhibition)	76 to 100%	D (D = 76-100% inhibition)	D (D = 76-100% inhibition)	D* (85-100% activation)
CO[C@H]1C[C@@H](Nc2nc(-c3nccn3C)nn3cc(-c4ccn(C)n4)c(C)c23)C1 [Compound 131, N-((1s,3s)-3-Methoxycyclobutyl)-5-methyl-2-(1-methyl-1H-imidazol-2-yl)-6-(1-methyl-1H-pyrazol-3-yl)pyrrolo[2,1-f][1,2,4]triazin-4-amine]	0 (0 = 0% inhibition)	B (B = 26-49% inhibition)	0%	0 (0 = 0% inhibition)	A (A = 1-25% inhibition)	A (1-25% inhibition)
